The text below walks through data of patent publication US11214803B2, “Modulators of YAP1 expression” (Ionis Pharmaceuticals, Inc., priority 2019, dated 2022).

Strand notation (5' to 3'): a small letter for the sugar, then the base; units joined by * are phosphorothioate-linked, units joined directly phosphodiester-linked; [ ] holds rarer units or linkages, { } end groups; capitals alone tell only the bases. e = 2'-O-(2-methoxyethyl) (MOE); k = constrained ethyl (cEt); [5mC] = 5-methylcytosine; d = 2'-deoxy (DNA)

The first series deals with Yap1 mRNA. Description: Antisense inhibition of human Yap1 in SNU-449 cells by modified oligonucleotides, single dose (Example 5, RTS36584). The series is classed as cell-based. The following applies: Table 40 (separate experiment); SNU-449 cells, 10,000 cells per well, free uptake, 2,000 nM oligonucleotide, approx. 48 hours; RTS36584; normalized to RIBOGREEN; Yap1 mRNA relative to untreated control. The gist of the method: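 Each modified oligonucleotide is applied by free uptake to SNU-449 cultures at 2,000 nM, and total RNA is harvested around 48 h later. Yap1 transcript, quantified with the RTS36584 set and corrected for RIBOGREEN RNA content, is given as % UTC. Asterisks mark sequences overlapping the amplicon.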
As for “1198777 (kA*eT*kT*dG*d[5mC]*dA*dA*dT*d[5mC]*dT*dG*dT*e[5mC]*eT*kG*kA; antisense) [Compound 1198777]”, the “YAP1 (% UTC)” value is 84 % UTC.

Consider “1198778 (kA*eT*kA*dT*dT*dG*d[5mC]*dA*dA*dT*d[5mC]*dT*eG*eT*k[5mC]*kT; antisense) [Compound 1198778]”, for which the “YAP1 (% UTC)” value worked out at 55 % UTC.

On to “1198779 (antisense kA*eA*kT*dA*dT*dT*dG*d[5mC]*dA*dA*dT*d[5mC]*eT*eG*kT*k[5mC]) [Compound 1198779]”, for which the “YAP1 (% UTC)” value was found to be 49 % UTC.

As for “1198780 (antisense kT*eA*kA*dT*dA*dT*dT*dG*d[5mC]*dA*dA*dT*e[5mC]*eT*kG*kT) [Compound 1198780]”, the “YAP1 (% UTC)” value was 80 % UTC.

Consider “1198781 (antisense kG*eT*kA*dA*dT*dA*dT*dT*dG*d[5mC]*dA*dA*eT*e[5mC]*kT*kG) [Compound 1198781]”, for which the “YAP1 (% UTC)” value amounted to 25 % UTC.

As for “1198782 (antisense kT*eG*kT*dA*dA*dT*dA*dT*dT*dG*d[5mC]*dA*eA*eT*k[5mC]*kT) [Compound 1198782]”, the “YAP1 (% UTC)” value is listed as 61 % UTC.

Turning to “1198783 (antisense kA*eT*kG*dT*dA*dA*dT*dA*dT*dT*dG*d[5mC]*eA*eA*kT*k[5mC]) [Compound 1198783]”, the “YAP1 (% UTC)” value was found to be 78 % UTC.

For “1198784 (antisense kT*eA*kT*dG*dT*dA*dA*dT*dA*dT*dT*dG*e[5mC]*eA*kA*kT) [Compound 1198784]”, the “YAP1 (% UTC)” value turned out to be 94 % UTC.

As for “1198785 (antisense kT*eT*kT*dA*dT*dG*dT*dA*dA*dT*dA*dT*eT*eG*k[5mC]*kA) [Compound 1198785]”, the “YAP1 (% UTC)” value stood at 86 % UTC.

“1198795 (antisense kT*eA*kA*dG*dG*dT*dT*dT*d[5mC]*d[5mC]*d[5mC]*dA*eG*eA*kT*kT) [Compound 1198795]”: the “YAP1 (% UTC)” value was determined as 43 % UTC.

As for “1198796 (antisense kA*eG*kT*dA*dA*dG*dG*dT*dT*dT*d[5mC]*d[5mC]*e[5mC]*eA*kG*kA) [Compound 1198796]”, the “YAP1 (% UTC)” value came to 32 % UTC.

Consider “1198797 (antisense kA*eA*kG*dT*dA*dA*dG*dG*dT*dT*dT*d[5mC]*e[5mC]*e[5mC]*kA*kG) [Compound 1198797]”, for which the “YAP1 (% UTC)” value was 31 % UTC.

As to “1198798 (antisense kT*eA*kA*dG*dT*dA*dA*dG*dG*dT*dT*dT*e[5mC]*e[5mC]*k[5mC]*kA) [Compound 1198798]”, the “YAP1 (% UTC)” value is reported as 38 % UTC.

In the case of “1198799 (antisense k[5mC]*eT*kA*dA*dG*dT*dA*dA*dG*dG*dT*dT*eT*e[5mC]*k[5mC]*k[5mC]) [Compound 1198799]”, the “YAP1 (% UTC)” value is listed as 18 % UTC.

As for “1198800 (antisense kA*e[5mC]*kT*dA*dA*dG*dT*dA*dA*dG*dG*dT*eT*eT*k[5mC]*k[5mC]) [Compound 1198800]”, the “YAP1 (% UTC)” value is given as 47 % UTC.

“1198801 (antisense kG*eA*k[5mC]*dT*dA*dA*dG*dT*dA*dA*dG*dG*eT*eT*kT*k[5mC]) [Compound 1198801]”: the “YAP1 (% UTC)” value came out at 47 % UTC.

In the case of “1198802 (antisense kA*eG*kA*d[5mC]*dT*dA*dA*dG*dT*dA*dA*dG*eG*eT*kT*kT) [Compound 1198802]”, the “YAP1 (% UTC)” value worked out at 83 % UTC.

For the substance “1198803 (antisense kT*eT*kA*dG*dA*d[5mC]*dT*dA*dA*dG*dT*dA*eA*eG*kG*kT) [Compound 1198803]”, the “YAP1 (% UTC)” value amounted to 62 % UTC.

The same series, now with this note: Table 41; SNU-449 cells, 10,000 cells per well, free uptake, 2,000 nM modified oligonucleotide, approximately 48 hours; RTS36584; normalized to RIBOGREEN; Yap1 mRNA relative to untreated control cells.
On to “1198771 (kT*e[5mC]*kT*dT*dA*dT*dA*dT*dG*dG*dT*dT*eT*eT*kG*kT; antisense) [Compound 1198771]”, for which the “YAP1 (% UTC)” value was 85 % UTC.

Take “1198772 (k[5mC]*eT*k[5mC]*dT*dT*dA*dT*dA*dT*dG*dG*dT*eT*eT*kT*kG; antisense) [Compound 1198772]”: the “YAP1 (% UTC)” value is 41 % UTC.

In the case of “1198773 (kA*e[5mC]*kT*d[5mC]*dT*dT*dA*dT*dA*dT*dG*dG*eT*eT*kT*kT; antisense) [Compound 1198773]”, the “YAP1 (% UTC)” value is listed as 58 % UTC.

On to “1198774 (kA*eA*k[5mC]*dT*d[5mC]*dT*dT*dA*dT*dA*dT*dG*eG*eT*kT*kT; antisense) [Compound 1198774]”, for which the “YAP1 (% UTC)” value is 106 % UTC.

In the case of “1198775 (k[5mC]*eA*kA*d[5mC]*dT*d[5mC]*dT*dT*dA*dT*dA*dT*eG*eG*kT*kT; antisense) [Compound 1198775]”, the “YAP1 (% UTC)” value stood at 113 % UTC.

Take “1198776 (kG*eA*k[5mC]*dA*dA*d[5mC]*dT*d[5mC]*dT*dT*dA*dT*eA*eT*kG*kG) [Compound 1198776]”: the “YAP1 (% UTC)” value was found to be 57 % UTC.

With “1198786 (antisense kT*eG*kT*dA*dT*dG*dT*d[5mC]*dA*dG*dA*dA*eG*eA*kG*kT) [Compound 1198786]”, the “YAP1 (% UTC)” value is on record as 16 % UTC.

With “1198787 (antisense kA*eG*kT*dG*dT*dA*dT*dG*dT*d[5mC]*dA*dG*eA*eA*kG*kA) [Compound 1198787]”, the “YAP1 (% UTC)” value is listed as 9 % UTC.

Turning to “1198788 (antisense kA*eA*kG*dT*dG*dT*dA*dT*dG*dT*d[5mC]*dA*eG*eA*kA*kG) [Compound 1198788]”, the “YAP1 (% UTC)” value is listed as 17 % UTC.

With “1198789 (antisense kA*eA*kA*dG*dT*dG*dT*dA*dT*dG*dT*d[5mC]*eA*eG*kA*kA) [Compound 1198789]”, the “YAP1 (% UTC)” value was determined as 22 % UTC.

“1198790 (antisense kT*eA*kA*dA*dG*dT*dG*dT*dA*dT*dG*dT*e[5mC]*eA*kG*kA) [Compound 1198790]”: the “YAP1 (% UTC)” value turned out to be 27 % UTC.

For “1198791 (antisense kT*eT*kA*dA*dA*dG*dT*dG*dT*dA*dT*dG*eT*e[5mC]*kA*kG) [Compound 1198791]”, the “YAP1 (% UTC)” value is given as 39 % UTC.

Consider “1198792 (antisense kT*eT*kT*dA*dA*dA*dG*dT*dG*dT*dA*dT*eG*eT*k[5mC]*kA) [Compound 1198792]”, for which the “YAP1 (% UTC)” value stood at 48 % UTC.

With “1198793 (antisense k[5mC]*eT*kT*dT*dA*dA*dA*dG*dT*dG*dT*dA*eT*eG*kT*k[5mC]) [Compound 1198793]”, the “YAP1 (% UTC)” value is 34 % UTC.

As for “1198794 (antisense kA*eA*k[5mC]*dT*dT*dT*dA*dA*dA*dG*dT*dG*eT*eA*kT*kG) [Compound 1198794]”, the “YAP1 (% UTC)” value amounted to 74 % UTC.

The series is the same for the next values; noted with them: Table 46; Yap1 mRNA as percent of untreated control, SNU-449 cells, single dose.
In the case of “1198804 (antisense kT*kG*dT*d[5mC]*dT*d[5mC]*dA*dT*dG*d[5mC]*d[5mC]*kT*eT*kA*eT*kA) [Compound 1198804]”, the “YAP1 (% UT)” value is given as 22 % UT.

With “1198805 (antisense kA*kT*dT*dG*dT*d[5mC]*dT*d[5mC]*dA*dT*dG*k[5mC]*e[5mC]*kT*eT*kA) [Compound 1198805]”, the “YAP1 (% UT)” value was found to be 23 % UT.

Take “1198806 (antisense kA*kA*dT*dT*dG*dT*d[5mC]*dT*d[5mC]*dA*dT*kG*e[5mC]*k[5mC]*eT*kT) [Compound 1198806]”: the “YAP1 (% UT)” value is given as 33 % UT.

Consider “1198808 (antisense kG*kA*dA*dA*dT*dT*dG*dT*d[5mC]*dT*d[5mC]*kA*eT*kG*e[5mC]*k[5mC]) [Compound 1198808]”, for which the “YAP1 (% UT)” value was 40 % UT.

With “1198809 (antisense kG*kG*dA*dA*dA*dT*dT*dG*dT*d[5mC]*dT*k[5mC]*eA*kT*eG*k[5mC]) [Compound 1198809]”, the “YAP1 (% UT)” value was 27 % UT.

Consider “1198810 (antisense kT*kG*dG*dA*dA*dA*dT*dT*dG*dT*d[5mC]*kT*e[5mC]*kA*eT*kG) [Compound 1198810]”, for which the “YAP1 (% UT)” value is recorded as 50 % UT.

On to “1198811 (antisense kA*kT*dG*dG*dA*dA*dA*dT*dT*dG*dT*k[5mC]*eT*k[5mC]*eA*kT) [Compound 1198811]”, for which the “YAP1 (% UT)” value was 38 % UT.

Consider “1198812 (antisense kA*kT*dA*dT*dG*dG*dA*dA*dA*dT*dT*kG*eT*k[5mC]*eT*k[5mC]) [Compound 1198812]”, for which the “YAP1 (% UT)” value is 26 % UT.

For “1198813 (antisense kA*kG*dT*dA*dT*dG*dT*dG*dG*d[5mC]*dA*kA*eT*kA*eA*kT) [Compound 1198813]”, the “YAP1 (% UT)” value is 55 % UT.

As for “1198814 (antisense kA*kG*dA*dG*dT*dA*dT*dG*dT*dG*dG*k[5mC]*eA*kA*eT*kA) [Compound 1198814]”, the “YAP1 (% UT)” value is 13 % UT.

For the substance “1198815 (antisense kT*kA*dG*dA*dG*dT*dA*dT*dG*dT*dG*kG*e[5mC]*kA*eA*kT) [Compound 1198815]”, the “YAP1 (% UT)” value was determined as 24 % UT.

As for “1198816 (antisense kT*kT*dA*dG*dA*dG*dT*dA*dT*dG*dT*kG*eG*k[5mC]*eA*kA) [Compound 1198816]”, the “YAP1 (% UT)” value came out at 27 % UT.

As to “1198817 (antisense kA*kT*dT*dA*dG*dA*dG*dT*dA*dT*dG*kT*eG*kG*e[5mC]*kA) [Compound 1198817]”, the “YAP1 (% UT)” value is on record as “AksTksTdsAdsGdsAdsGdsTdsAdsTds43 % UT”.

In the case of “1198818 (antisense kT*kA*dT*dT*dA*dG*dA*dG*dT*dA*dT*kG*eT*kG*eG*k[5mC]) [Compound 1198818]”, the “YAP1 (% UT)” value was found to be 15 % UT.

As for “1198819 (kA*kT*dA*dT*dT*dA*dG*dA*dG*dT*dA*kT*eG*kT*eG*kG; antisense) [Compound 1198819]”, the “YAP1 (% UT)” value amounted to 44 % UT.

For “1198820 (kT*kA*dT*dA*dT*dT*dA*dG*dA*dG*dT*kA*eT*kG*eT*kG; antisense) [Compound 1198820]”, the “YAP1 (% UT)” value is recorded as 62 % UT.

As to “1198821 (kT*k[5mC]*dT*dA*dT*dA*dT*dT*dA*dG*dA*kG*eT*kA*eT*kG; antisense) [Compound 1198821]”, the “YAP1 (% UT)” value is given as 62 % UT.

Consider “1198822 (kT*kA*dT*dA*dA*d[5mC]*dT*dG*dG*dG*d[5mC]*kA*eA*kA*eT*kT; antisense) [Compound 1198822]”, for which the “YAP1 (% UT)” value is 97 % UT.
